How the values were obtained:
Assay in all cases: relative viability (nuclei count vs DMSO), 5 days (fraction); higher = more cells survive
HOP-62 = test system: HOP-62
How it was run: (§1)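 Relative viability was taken as the ratio of nuclei in treated wells to nuclei in vehicle wells. Lung cancer cell lines in 1536-well plates received compounds by pin tool one day after seeding, either one drug alone or a fixed anchor-drug dose plus five library-drug doses (not always all listed) in √10 steps. Nuclei were counted on 4× images after 5 days of treatment, and values are medians of duplicate plates.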

ABC-1 = test system: ABC-1
How it was run: as §1

COR-L 105 = test system: COR-L 105
How it was run: as §1

NCI-H2126 = test system: NCI-H2126
How it was run: as §1

CAL-12T = test system: CAL-12T
How it was run: as §1

NCI-H2085 = test system: NCI-H2085
How it was run: as §1

NCI-H1755 = test system: NCI-H1755
How it was run: as §1

UMC-11 = test system: UMC-11
How it was run: as §1

NCI-H1915 = test system: NCI-H1915
How it was run: as §1

HCC-15 = test system: HCC-15
How it was run: as §1

ChaGo-K-1 = test system: ChaGo-K-1
How it was run: as §1

NCI-H3122 = test system: NCI-H3122
How it was run: as §1

NCI-H322M = test system: NCI-H322M
How it was run: as §1

NCI-H1975 = test system: NCI-H1975
How it was run: as §1

HCC-78 = test system: HCC-78
How it was run: as §1

NCI-H358 = test system: NCI-H358
How it was run: as §1

NCI-H441 = test system: NCI-H441
How it was run: as §1

NCI-H2023 = test system: NCI-H2023
How it was run: as §1

NCI-H1666 = test system: NCI-H1666
How it was run: as §1

LXF-289 = test system: LXF-289
How it was run: as §1

EMC-BAC-2 = test system: EMC-BAC-2
How it was run: as §1

EPLC-272H = test system: EPLC-272H
How it was run: as §1

O=c1cc(N2CCOCC2)oc2c(-c3cccc4c3sc3ccccc34)cccc12 + CC(=O)c1c(C)c2cnc(Nc3ccc(N4CCNCC4)cn3)nc2n(C2CCCC2)c1=O [Palbociclib] (partner 0.5 µM)
relative viability (HOP-62; first compound 0.01 µM): 0.452 | relative viability (HOP-62; first compound 0.03162 µM): 0.451 | relative viability (HOP-62; first compound 0.1 µM): 0.451 | relative viability (HOP-62; first compound 0.3162 µM): 0.459 | relative viability (HOP-62; first compound 1 µM): 0.415 | relative viability (ABC-1; first compound 0.01 µM): 0.644 | relative viability (ABC-1; first compound 0.03162 µM): 0.797 | relative viability (ABC-1; first compound 0.1 µM): 0.699 | relative viability (ABC-1; first compound 0.3162 µM): 0.619 | relative viability (ABC-1; first compound 1 µM): 0.578 | relative viability (COR-L 105; first compound 0.01 µM): 0.41 | relative viability (COR-L 105; first compound 0.03162 µM): 0.468 | relative viability (COR-L 105; first compound 0.1 µM): 0.438 | relative viability (COR-L 105; first compound 0.3162 µM): 0.409 | relative viability (COR-L 105; first compound 1 µM): 0.386 | relative viability (NCI-H2126; first compound 0.01 µM): 0.349 | relative viability (NCI-H2126; first compound 0.03162 µM): 0.339 | relative viability (NCI-H2126; first compound 0.1 µM): 0.318 | relative viability (NCI-H2126; first compound 0.3162 µM): 0.331 | relative viability (NCI-H2126; first compound 1 µM): 0.345 | relative viability (CAL-12T; first compound 0.01 µM): 0.444 | relative viability (CAL-12T; first compound 0.03162 µM): 0.401 | relative viability (CAL-12T; first compound 0.1 µM): 0.587 | relative viability (CAL-12T; first compound 0.3162 µM): 0.528 | relative viability (CAL-12T; first compound 1 µM): 0.436 | relative viability (NCI-H2085; first compound 0.01 µM): 0.467 | relative viability (NCI-H2085; first compound 0.03162 µM): 0.455 | relative viability (NCI-H2085; first compound 0.1 µM): 0.492 | relative viability (NCI-H2085; first compound 0.3162 µM): 0.512 | relative viability (NCI-H2085; first compound 1 µM): 0.452 | relative viability (NCI-H1755; first compound 0.01 µM): 0.475 | relative viability (NCI-H1755; first compound 0.03162 µM): 0.455 | relative viability (NCI-H1755; first compound 0.1 µM): 0.488 | relative viability (NCI-H1755; first compound 0.3162 µM): 0.457 | relative viability (NCI-H1755; first compound 1 µM): 0.456 | relative viability (UMC-11; first compound 0.01 µM): 0.309 | relative viability (UMC-11; first compound 0.03162 µM): 0.294 | relative viability (UMC-11; first compound 0.1 µM): 0.32 | relative viability (UMC-11; first compound 0.3162 µM): 0.347 | relative viability (UMC-11; first compound 1 µM): 0.324 | relative viability (NCI-H1915; first compound 0.01 µM): 0.529 | relative viability (NCI-H1915; first compound 0.03162 µM): 0.555 | relative viability (NCI-H1915; first compound 0.1 µM): 0.61 | relative viability (NCI-H1915; first compound 0.3162 µM): 0.461 | relative viability (NCI-H1915; first compound 1 µM): 0.526 | relative viability (HCC-15; first compound 0.01 µM): 0.73 | relative viability (HCC-15; first compound 0.03162 µM): 0.709 | relative viability (HCC-15; first compound 0.1 µM): 0.891 | relative viability (HCC-15; first compound 0.3162 µM): 0.624 | relative viability (HCC-15; first compound 1 µM): 0.727 | relative viability (ChaGo-K-1; first compound 0.01 µM): 0.884 | relative viability (ChaGo-K-1; first compound 0.03162 µM): 0.91 | relative viability (ChaGo-K-1; first compound 0.1 µM): 0.964 | relative viability (ChaGo-K-1; first compound 0.3162 µM): 0.947 | relative viability (ChaGo-K-1; first compound 1 µM): 0.954 | relative viability (NCI-H3122; first compound 0.01 µM): 0.171 | relative viability (NCI-H3122; first compound 0.03162 µM): 0.183 | relative viability (NCI-H3122; first compound 0.1 µM): 0.167 | relative viability (NCI-H3122; first compound 0.3162 µM): 0.177 | relative viability (NCI-H3122; first compound 1 µM): 0.161 | relative viability (NCI-H322M; first compound 0.01 µM): 0.484 | relative viability (NCI-H322M; first compound 0.03162 µM): 0.472 | relative viability (NCI-H322M; first compound 0.3162 µM): 0.462 | relative viability (NCI-H322M; first compound 1 µM): 0.45 | relative viability (NCI-H1975; first compound 0.01 µM): 0.61 | relative viability (NCI-H1975; first compound 0.03162 µM): 0.609 | relative viability (NCI-H1975; first compound 0.1 µM): 0.626 | relative viability (NCI-H1975; first compound 0.3162 µM): 0.529 | relative viability (NCI-H1975; first compound 1 µM): 0.591 | relative viability (HCC-78; first compound 0.01 µM): 0.493 | relative viability (HCC-78; first compound 0.03162 µM): 0.482 | relative viability (HCC-78; first compound 0.1 µM): 0.437 | relative viability (HCC-78; first compound 0.3162 µM): 0.5 | relative viability (HCC-78; first compound 1 µM): 0.446 | relative viability (NCI-H358; first compound 0.01 µM): 0.163 | relative viability (NCI-H358; first compound 0.03162 µM): 0.127 | relative viability (NCI-H358; first compound 0.1 µM): 0.132 | relative viability (NCI-H358; first compound 0.3162 µM): 0.133 | relative viability (NCI-H358; first compound 1 µM): 0.126 | relative viability (NCI-H441; first compound 0.01 µM): 0.21 | relative viability (NCI-H441; first compound 0.03162 µM): 0.217 | relative viability (NCI-H441; first compound 0.1 µM): 0.207 | relative viability (NCI-H441; first compound 0.3162 µM): 0.233 | relative viability (NCI-H441; first compound 1 µM): 0.222 | relative viability (NCI-H2023; first compound 0.01 µM): 0.436 | relative viability (NCI-H2023; first compound 0.03162 µM): 0.325 | relative viability (NCI-H2023; first compound 0.1 µM): 0.462 | relative viability (NCI-H2023; first compound 0.3162 µM): 0.337 | relative viability (NCI-H2023; first compound 1 µM): 0.346 | relative viability (NCI-H1666; first compound 0.01 µM): 0.663 | relative viability (NCI-H1666; first compound 0.03162 µM): 0.593 | relative viability (NCI-H1666; first compound 0.1 µM): 0.709 | relative viability (NCI-H1666; first compound 0.3162 µM): 0.651 | relative viability (NCI-H1666; first compound 1 µM): 0.643 | relative viability (LXF-289; first compound 0.01 µM): 0.631 | relative viability (LXF-289; first compound 0.03162 µM): 0.59 | relative viability (LXF-289; first compound 0.1 µM): 0.593 | relative viability (LXF-289; first compound 0.3162 µM): 0.583 | relative viability (LXF-289; first compound 1 µM): 0.595 | relative viability (EMC-BAC-2; first compound 0.01 µM): 0.525 | relative viability (EMC-BAC-2; first compound 0.03162 µM): 0.541 | relative viability (EMC-BAC-2; first compound 0.1 µM): 0.55 | relative viability (EMC-BAC-2; first compound 0.3162 µM): 0.51 | relative viability (EMC-BAC-2; first compound 1 µM): 0.497 | relative viability (EPLC-272H; first compound 0.01 µM): 0.302 | relative viability (EPLC-272H; first compound 0.03162 µM): 0.31 | relative viability (EPLC-272H; first compound 0.1 µM): 0.274 | relative viability (EPLC-272H; first compound 0.3162 µM): 0.325 | relative viability (EPLC-272H; first compound 1 µM): 0.325
